According to ChEMBL document CHEMBL1201862, “PubChem BioAssay data set” (2004):
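Cultured in 96-well plates, cells were exposed to test compound for 48 hours across five concentrations. The concentration for 50% growth inhibition is given as GI50.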 Calls of active or inactive are those of the source. Cut-off read from the data, not from the text of the source: active = GI50 up to about 1.1 µM and inactive = higher.

Assays:
Assay in all cases: DTP human tumour cell line panel, 48 h
COLO 205 = tested on: COLO 205
U-251 = tested on: U-251
SF-539 = tested on: SF-539
HOP-62 = tested on: HOP-62
A549 = tested on: A549
DMS-273 = tested on: DMS-273
NCI-H226 = tested on: NCI-H226
SN12C = tested on: SN12C
SK-OV-3 = tested on: SK-OV-3
UACC-62 = tested on: UACC-62
KM12 = tested on: KM12
OVCAR-3 = tested on: OVCAR-3
SK-MEL-28 = tested on: SK-MEL-28
HCC 2998 = tested on: HCC 2998
UACC-257 = tested on: UACC-257
DU-145 = tested on: DU-145
NCI/ADR-RES = tested on: NCI/ADR-RES
Hs-578T = tested on: Hs-578T
MDA-MB-435 = tested on: MDA-MB-435
BT-549 = tested on: BT-549

Structure (SMILES)	GI50 (COLO 205)	GI50 (U-251)	GI50 (SF-539)	GI50 (HOP-62)	GI50 (A549)	GI50 (DMS-273)	GI50 (NCI-H226)	GI50 (SN12C)	GI50 (SK-OV-3)	GI50 (UACC-62)	GI50 (KM12)	GI50 (OVCAR-3)	GI50 (SK-MEL-28)	GI50 (HCC 2998)	GI50 (UACC-257)	GI50 (DU-145)	GI50 (NCI/ADR-RES)	GI50 (Hs-578T)	GI50 (MDA-MB-435)	GI50 (BT-549)
CN(C)[C@@H]1C(O)=C(C(=O)NCNCCCC(=O)O)C(=O)[C@@]2(O)C(O)=C3C(=O)c4c(O)cccc4[C@@](C)(O)[C@H]3C[C@@H]12	> 100 µM (inactive)	> 100 µM (inactive)	> 100 µM (inactive)	> 100 µM (inactive)	> 100 µM (inactive)	> 100 µM (inactive)	> 100 µM (inactive)	> 100 µM (inactive)	> 100 µM (inactive)	> 100 µM (inactive)	> 100 µM (inactive)	> 100 µM (inactive)	> 100 µM (inactive)	> 100 µM (inactive)	> 100 µM (inactive)	–	–	–	–	–
C=C1CC2(OC1=O)c1ccccc1C=Cc1ccccc12	2.3 µM (inactive)	8.04 µM (inactive)	2.83 µM (inactive)	12.6 µM (inactive)	9.42 µM (inactive)	14.8 µM (inactive)	5.08 µM (inactive)	2.66 µM (inactive)	16.9 µM (inactive)	5.13 µM (inactive)	4.05 µM (inactive)	4.61 µM (inactive)	4.34 µM (inactive)	6.95 µM (inactive)	5.14 µM (inactive)	11.5 µM (inactive)	1.64 µM (inactive)	2.51 µM (inactive)	1.68 µM (inactive)	1.83 µM (inactive)
O=c1[nH]c(=O)n([C@@H]2O[C@H](CO)[C@@H](O)[C@H]2O)cc1F [5-FLUOROURIDINE]	0.0787 µM (active)	0.0462 µM (active)	0.0375 µM (active)	0.171 µM (active)	0.0179 µM (active)	0.312 µM (active)	0.154 µM (active)	0.0603 µM (active)	5.66 µM (inactive)	0.169 µM (active)	0.0671 µM (active)	0.223 µM (active)	0.805 µM (active)	0.0311 µM (active)	–	0.151 µM (active)	0.0792 µM (active)	2.01 µM (inactive)	0.0333 µM (active)	0.459 µM (active)
O=S1(=O)OCCOS(=O)(=O)C1(Cl)Cl	> 100 µM (inactive)	–	> 100 µM (inactive)	64.9 µM (inactive)	> 100 µM (inactive)	53.1 µM (inactive)	41.1 µM (inactive)	> 100 µM (inactive)	> 100 µM (inactive)	31.3 µM (inactive)	> 100 µM (inactive)	> 100 µM (inactive)	> 100 µM (inactive)	> 100 µM (inactive)	> 100 µM (inactive)	–	–	–	–	–
COc1ccc(NC(=O)CCc2cc(C(C)(C)C)[nH]n2)cc1	> 100 µM (inactive)	> 100 µM (inactive)	> 100 µM (inactive)	> 100 µM (inactive)	> 100 µM (inactive)	> 100 µM (inactive)	> 100 µM (inactive)	> 100 µM (inactive)	> 100 µM (inactive)	> 100 µM (inactive)	> 100 µM (inactive)	> 100 µM (inactive)	> 100 µM (inactive)	> 100 µM (inactive)	> 100 µM (inactive)	–	–	–	–	–
CSC(=N)NNC(=O)CCC(=O)Nc1ccccc1C(F)(F)F	> 100 µM (inactive)	> 100 µM (inactive)	> 79.8 µM (inactive)	> 100 µM (inactive)	> 100 µM (inactive)	> 100 µM (inactive)	> 100 µM (inactive)	> 100 µM (inactive)	> 100 µM (inactive)	> 100 µM (inactive)	> 100 µM (inactive)	> 100 µM (inactive)	> 100 µM (inactive)	> 100 µM (inactive)	> 100 µM (inactive)	–	–	–	–	–
Cc1cc(N(CCC#N)CCC#N)ccc1/C=C1N=C(/C=C/c2ccccc2)OC(=O)N\1	> 100 µM (inactive)	61.5 µM (inactive)	> 100 µM (inactive)	> 100 µM (inactive)	> 100 µM (inactive)	> 100 µM (inactive)	33 µM (inactive)	> 100 µM (inactive)	92.3 µM (inactive)	> 100 µM (inactive)	> 100 µM (inactive)	81.5 µM (inactive)	> 100 µM (inactive)	> 100 µM (inactive)	> 100 µM (inactive)	–	–	–	–	–
COc1c2c(c(O)c3c4c(c(C)cc13)C1OC3(C(OC)OC5CC(C)(O)C(OC6CC(C)(O)C(O)C(C)O6)C(C)O5)OC1C(OC)(O4)C31CO1)C(=O)C(O)CC2OC1CC(C)(O)C(OC(C)=O)C(C)O1 (stereo unspecified)	< 0.01 µM (active)	< 0.01 µM (active)	< 0.01 µM (active)	< 0.01 µM (active)	< 0.01 µM (active)	< 0.01 µM (active)	< 0.01 µM (active)	< 0.01 µM (active)	< 0.01 µM (active)	< 0.01 µM (active)	< 0.01 µM (active)	< 0.01 µM (active)	< 0.01 µM (active)	< 0.01 µM (active)	< 0.01 µM (active)	–	–	–	–	–
COc1cc(/C=N\O[Si](C)(C)C(C)(C)C)ccc1O[Si](C)(C)C(C)(C)C	> 100 µM (inactive)	30 µM (inactive)	41.7 µM (inactive)	> 100 µM (inactive)	> 100 µM (inactive)	> 100 µM (inactive)	–	> 100 µM (inactive)	> 100 µM (inactive)	> 100 µM (inactive)	83.6 µM (inactive)	22.3 µM (inactive)	–	24.5 µM (inactive)	> 100 µM (inactive)	–	–	–	–	–
